Our source for the GI50, TGI and CC50 values is ChEMBL document CHEMBL1140770, “Chemo-, regio-, and stereoselectivity of F-ring opening reactions in the cephalostatin series” (2008).

What all share (assay type): functional
Common to all, as to conditions: for CC50: read-out: LC50 (the source's name)

One experiment concerns MCF7. Put plainly: Cytostatic activity against human MCF7 cells by SRB assay.
In the next experiment the test system is HepG2. The experiment can be described thus: Cytostatic activity against human HepG2 cells by SRB assay. In general terms: In SRB staining, fixed cells bind dye roughly in proportion to their protein.
A short description of experiment [1]: Cytostatic activity against human HM02 cells by SRB assay.

One may read the GI50 as the concentration that inhibits growth by half. A word on the TGI: it is the concentration giving total growth inhibition. A high value points to lower sensitivity of the cells. Take `C[C@H]1CC[C@@]2(OC1)O[C@H]1C=C3[C@@H]4CC[C@H]5Cc6nc7c(nc6C[C@]5(C)[C@H]4C[C@@H](O)[C@]3(C)[C@H]1[C@@H]2C)C[C@@H]1CC[C@H]2C3=C[C@@H]4O[C@]5(CC[C@H](C)CO5)[C@@H](C)[C@@H]4[C@@]3(C)[C@H](O)C[C@@H]2[C@@]1(C)C7`: in the experiment with MCF7, the GI50 came to 5.2 µM, the TGI was over 10 µM and the CC50 is over 10 µM. In the experiment with HepG2, the GI50 came to 0.65 µM, the TGI is 5 µM and the CC50 is over 10 µM. Moreover, in experiment [1], the GI50 is 2.6 µM, the TGI was 7 µM and the CC50 is over 10 µM.

`C[C@H]1CC[C@@]2(OC1)O[C@H]1C=C3[C@@H]4CC[C@H]5Cc6nc7c(nc6C[C@]5(C)[C@H]4CC(=O)[C@]3(C)[C@H]1[C@@H]2C)C[C@@H]1CC[C@H]2C3=C[C@@H]4O[C@]5(CC[C@H](C)CO5)[C@@H](C)[C@@H]4[C@@]3(C)[C@H](O)C[C@@H]2[C@@]1(C)C7`: in the experiment with MCF7, the GI50 was over 10 µM, the TGI is over 10 µM and the CC50 is over 10 µM. Also, in the experiment with HepG2, the GI50 was over 10 µM, the TGI is over 10 µM and the CC50 is over 10 µM. In experiment [1], growth was halved (GI50) at 3 µM, the TGI was over 10 µM and the CC50 was over 10 µM.

Take `C[C@H]1CC[C@@]2(OC1)O[C@H]1C=C3[C@@H]4CC[C@H]5Cc6nc7c(nc6C[C@]5(C)[C@H]4C[C@@H](O)[C@]3(C)[C@H]1[C@@H]2C)C[C@@H]1CC[C@H]2C3=C[C@@H]4O[C@]5(CC[C@H](C)CO5)[C@@H](C)[C@@H]4[C@@]3(C)C3(C[C@@H]2[C@@]1(C)C7)OCCO3`: in the experiment with MCF7, the GI50 is 0.1 µM, the TGI was over 10 µM and the CC50 was over 10 µM. Besides, in the experiment with HepG2, it took 0.07 µM to inhibit growth by half (GI50), the TGI came out at 1.7 µM and the CC50 is over 10 µM. Besides, in experiment [1], the GI50 was 2.8 µM, the TGI is over 10 µM and the CC50 is over 10 µM.

As to `C[C@H](CO)CC[C@H]1O[C@H]2C=C3[C@@H]4CC[C@H]5Cc6nc7c(nc6C[C@]5(C)[C@H]4C[C@@H](O)[C@]3(C)[C@H]2[C@@H]1C)C[C@@H]1CC[C@H]2C3=C[C@@H]4O[C@H](CC[C@H](C)CO)[C@@H](C)[C@@H]4[C@@]3(C)C3(C[C@@H]2[C@@]1(C)C7)OCCO3`, in the experiment with MCF7, the GI50 was found to be 8.2 µM, the concentration for total growth inhibition (TGI) was over 10 µM and the CC50 is over 10 µM. For the same compound, in the experiment with HepG2, the GI50 came to 1 µM, the TGI was over 10 µM and the CC50 was over 10 µM. In addition, in experiment [1], the 50% growth inhibitory concentration (GI50) worked out at 0.63 µM, the TGI was 1 µM and the CC50 was over 10 µM.

For the compound `C[C@H]1CC[C@@]2(OC1)O[C@H]1C=C3[C@@H]4CC[C@H]5Cc6nc7c(nc6C[C@]5(C)[C@H]4CC(=O)[C@]3(C)[C@H]1[C@@H]2C)C[C@@H]1CC[C@H]2C3=C[C@@H]4O[C@]5(CC[C@H](C)CO5)[C@@H](C)[C@@H]4[C@@]3(C)C(=O)C[C@@H]2[C@@]1(C)C7`, in the experiment on MCF7, the 50% growth inhibitory concentration (GI50) was over 10 µM, the TGI is over 10 µM and the CC50 was over 10 µM. Besides, in the experiment with HepG2, the GI50 was 4.6 µM, the TGI is over 10 µM and the CC50 was over 10 µM. Besides, in experiment [1], growth was halved (GI50) at 5.5 µM, net growth stopped (TGI) at 7 µM and the CC50 was over 10 µM.

Consider `C=C1C[C@H]2[C@@H](CC[C@H]3Cc4nc5c(nc4C[C@@]32C)C[C@@H]2CC[C@H]3C4=C[C@@H]6O[C@]7(CC[C@H](C)CO7)[C@@H](C)[C@@H]6[C@@]4(C)C(=O)C[C@@H]3[C@@]2(C)C5)C2=C[C@@H]3O[C@]4(CC[C@H](C)CO4)[C@@H](C)[C@@H]3[C@@]12C`, for which the GI50 (with MCF7; in the experiment on HepG2; in experiment [1]) was over 10 µM in each case. In addition, the total growth inhibition concentration (TGI) (with MCF7; in the experiment on HepG2; in experiment [1]) was over 10 µM in each case. Further, the CC50 (with MCF7; with HepG2; in experiment [1]) was over 10 µM throughout.

Regarding `C[C@H]1CC[C@@]2(OC1)O[C@H]1C=C3[C@@H]4CC[C@H]5Cc6nc7c(nc6C[C@]5(C)[C@H]4C[C@@H](O)[C@]3(C)[C@H]1[C@@H]2C)C[C@@H]1CC[C@H]2C3=C[C@@H]4O[C@]5(CC[C@H](C)CO5)[C@@H](C)[C@@H]4[C@@]3(C)C(CO)C[C@@H]2[C@@]1(C)C7` (stereo partly specified), in the experiment on MCF7, the GI50 was 0.1 µM, the TGI is over 10 µM and the CC50 is over 10 µM. For the same compound, in the experiment on HepG2, halving of growth (GI50) required 6.9 µM, the TGI is 10 µM and the CC50 was over 10 µM. Besides, in experiment [1], the GI50 was determined as 2.3 µM, the concentration for total growth inhibition (TGI) was over 10 µM and the CC50 was over 10 µM.

Regarding `C=C1C[C@H]2[C@@H](CC[C@H]3Cc4nc5c(nc4C[C@@]32C)C[C@@H]2CC[C@H]3C4=C[C@@H]6O[C@H](CC[C@H](C)CO)[C@@H](C)[C@@H]6[C@@]4(C)[C@H](O)C[C@@H]3[C@@]2(C)C5)C2=C[C@@H]3O[C@H](CC[C@H](C)CO)[C@@H](C)[C@@H]3[C@@]12C`, in the experiment on MCF7, the GI50 stood at 5 µM, the TGI was over 10 µM and the CC50 was over 10 µM. In the experiment with HepG2, the GI50 came out at 1 µM, the TGI is over 10 µM and the CC50 was over 10 µM. In experiment [1], it took 1.7 µM to inhibit growth by half (GI50), the TGI worked out at 5.8 µM and the CC50 worked out at 9.5 µM.

Turning to `C[C@H](CO)CC[C@H]1O[C@H]2C=C3[C@@H]4CC[C@H]5Cc6nc7c(nc6C[C@]5(C)[C@H]4CC4(OCCO4)[C@]3(C)[C@H]2[C@@H]1C)C[C@@H]1CC[C@H]2C3=C[C@@H]4O[C@]5(CC[C@H](C)CO5)[C@@H](C)[C@@H]4[C@@]3(C)[C@H](O)C[C@@H]2[C@@]1(C)C7`, the GI50 stood at 2.5 µM in the experiment on MCF7, 10 µM in the experiment on HepG2 and 0.95 µM in experiment [1]. Also, the TGI in the experiment on MCF7 is 10 µM; in the experiment on HepG2 it was over 10 µM; in experiment [1], 3.1 µM. Also, the CC50 (in the experiment with MCF7; in the experiment on HepG2; in experiment [1]) was over 10 µM each time.
